US20120064514A1, “HIV-1-C […]” (Virco BVBA, priority 2009, published 2012)
Entries after “also recorded” stand apart in the source; their conditions may differ.

Assays:
[1] = test system: HIV-1-C recombinant virus stocks (pGEM-HIV-1-C-Δgprt-BstEII backbone); assay: Antiviral drug susceptibility testing of recombinant virus stocks, subtype C GPRT amplicon in HIV-1 subtype C backbone, MT4-eGFP cells; assay type: cell-based; settings: for effect of RAM M184V in RT on FC: subtype C backbone, Clone 3 of Sample 3, FC with vs without 184V, FIG. 4; for ratio FCsubtype B/FCsubtype C (fold change in IC50 vs wild-type): same subtype C GPRT amplicons in subtype B vs subtype C backbone, FIG. 3-E, ratio significantly different from 1 (p<0.05) for the listed drugs
Text: (§1) An HIV subtype C backbone was designed in silico. The complete genome (12 721 bp) was divided into 4 fragments which were chemically synthesized and subsequently joined together by traditional subcloning. Gag-protease-reverse-transcriptase (GPRT) fragments from 8 patient samples infected with subtype C HIV-1 were RT-PCR amplified. The 1.7 kb PCR fragment was cloned into the HIV-1-C backbone (deleted for GPRT) using In-Fusion reagents. Full-genome clones (N ranging from 1 to 5 per patient sample) were transfected in MT4-eGFP cells where cyto-pathogenic effect (CPE), p24 and Viral Load (VL) were monitored. The resulting HIV-1-C recombinant virus stocks (RVSs) were added to MT4-eGFP cells in the presence of serial dilutions of antiretroviral drugs (PI, NNRTI, N(t)RTI) to determine the fold-change in IC50 compared to the IC50 of wild-type HIV-1 virus. Additionally, viral RNA was extracted from the HIV-1-C RVSs and submitted to an RT-PCR. The resulting GPRT amplicons were recombined into a subtype B backbone and phenotyped as described above, allowing the comparison of GPRT resistance profiles in the two backbones.
(§2) 5. Antiviral Drug Susceptibility Testing of Virus Stocks Generated with the pGEM-HIV-1-C-Δgprt-BstEII vs. the pGEM-HXB2-Δgprt-BstEII Backbone but Carrying Identical GPRT Fragments.
(§3) Fold-change values were calculated by dividing the IC50 values of the virus stocks harboring Resistance Associated Mutations (RAMs) by the IC50 values of the corresponding backbone with wild-type amplicon.

[2] = test system: recombinant virus stocks with subtype C GPRT in pGEM-HXB2-Δgprt-BstEII (subtype B) backbone; assay: Antiviral drug susceptibility testing of recombinant virus stocks, subtype C GPRT amplicon in HIV-1 subtype B backbone, MT4-eGFP cells; assay type: cell-based; settings: Clone 3 of Sample 3, FC with vs without 184V, FIG. 4
Text: as §1
In contrast to the In-Fusion strategy for the subtype C backbone, a homologous recombination event strategy was used for the subtype B backbone to generate infectious virus. Here the BstEII-linearized pGEM-HXB2Δgprt-BstEII backbone was co-transfected with the 1.8 kb GPRT fragment in an MT4 cell line, resulting in a full-genome infectious virus.
as §2, §3

| Compound | effect of RAM M184V in RT on FC [1] | effect of RAM M184V in RT on FC [2] | ratio FCsubtype B/FCsubtype C (fold change in IC50 vs wild-type) [1] |
| --- | --- | --- | --- |
| Nc1nc(NC2CC2)c2ncn([C@H]3C=C[C@@H](CO)C3)c2n1 [ABC] | not significantly affected | not significantly affected |  |
| Cc1cn([C@H]2C[C@H](N=[N+]=[N-])[C@@H](CO)O2)c(=O)[nH]c1=O [AZT] | re-sensitizing effects; also recorded: decreases the FC | re-sensitizing effects; also recorded: decreases the FC |  |
| Cc1cc(C#N)cc(C)c1Oc1nc(Nc2ccc(C#N)cc2)nc(N)c1Br [ETR, etravirine] |  |  | 0.67 |
| Nc1nc(=O)n([C@@H]2CS[C@H](CO)O2)cc1F [FTC, emtricitabine] | increase in FC | increase in FC | 0.50 |
| CC(C)OC(=O)OCOP(=O)(CO[C@H](C)Cn1cnc2c(N)ncnc21)OCOC(=O)OC(C)C.O=C(O)/C=C/C(=O)O [TDF] | decreases the FC | decreases the FC |  |
| Cc1cn([C@H]2C=C[C@@H](CO)O2)c(=O)[nH]c1=O [d4T] | decreases the FC | decreases the FC |  |
| CC(C)CN(C[C@@H](O)[C@H](Cc1ccccc1)NC(=O)O[C@H]1CO[C@H]2OCC[C@H]21)S(=O)(=O)c1ccc(N)cc1 [darunavir] |  |  | 1.78 |
| O=c1[nH]cnc2c1ncn2[C@H]1CC[C@@H](CO)O1 [ddI, didanosine] | not significantly affected | not significantly affected |  |
| Cc1cccc(C)c1OCC(=O)N[C@@H](Cc1ccccc1)[C@@H](O)C[C@H](Cc1ccccc1)NC(=O)[C@H](C(C)C)N1CCCNC1=O [lopinavir] |  |  | 1.86 |
| Cc1ccnc2c1NC(=O)c1cccnc1N2C1CC1 [nevirapine] |  |  | 1.61 |
